MIC90 data for three molecules are collected here from patent publication US20090082337A1, “Compositions Comprising Quinolone and Methods for Treating or Controlling Infections” (priority 2007, published 2009).

SMILES strings stand for the structures. ≈ marks a conversion by molar mass, not a printed value.

In this assay the test system is Ofloxacin-resistant Enterobacteriaceae. Kind of assay: organism not typed. Format: cell-based.
One may read the MIC90 as the lowest concentration that inhibits either 90% of growth or 90% of the strains tested, depending on the study. A higher MIC90 goes with lower susceptibility. In turn, `N[C@@H]1CCCCN(c2c(F)cc3c(=O)c(C(=O)O)cn(C4CC4)c3c2Cl)C1` [Compound Having Formula IV] yielded an MIC90 of 16 µg/mL. Turning to `CCn1cc(C(=O)O)c(=O)c2cc(F)c(N3CCNCC3)cc21` [Norfloxacin], the MIC90 amounted to 128 µg/mL (≈ 401 µM). The molecule `CC1COc2c(N3CCN(C)CC3)c(F)cc3c(=O)c(C(=O)O)cn1c23` (stereo not drawn) [Ofloxacin, ofloxacin] displayed an MIC90 of 64 µg/mL (≈ 177 µM).
